System: HCV RNA replication
Assay: RNA replication inhibition assay (luciferase reporter-linked HCV genome)
Details: Hepatitis C virus, percentage of untreated control population; for activity at 5 µM: read-out: Residual Luciferase activity, 5 micromolar; for activity at 10 µM: read-out: Residual Luciferase activity, 10 micromolar

| Structure (SMILES) | activity at 5 µM | activity at 10 µM |
| --- | --- | --- |
| Cc1cccc(Cn2cnc3c(NS(=O)(=O)C(F)(F)F)c(C)c(C)cc32)c1 [Compound 78] | < 55% | < 20% |
| CC(C)c1nc2ccccc2n1Cc1ccc(Cl)cc1 [Compound 119] | < 80% | < 55% |
| COc1ccc(Cn2c(C)nc3c(NS(=O)(=O)c4ccc(F)cc4)c(C)c(C)cc32)cc1 [Compound 107] | < 80% | < 55% |
| CC(=O)N1CCC(Cn2c(CN3CCCC3)nc3ccccc32)CC1 [Compound 37] | < 80% | > 80% |
| N#Cc1ccc(Cn2cnc3ccccc32)cc1 [Compound 137] | < 80% | < 80% |
| COCC1CCCN1Cc1nc2cc(C)ccc2n1Cc1ccc(Cl)cc1 (stereo not drawn) [Compound 29] | > 80% | < 55% |
| Cc1cc2c(ncn2Cc2ccc(Cl)cc2)c(NC(=O)C(F)(F)F)c1C [Compound 70] | > 80% | > 80% |
| COc1ccc(Cn2cnc3ccccc32)cc1OC [Compound 140] | < 20% | < 55% |
| COCC1CCN(Cc2nc3ccccc3n2Cc2ccc(Cl)cc2)C1 (stereo not drawn) [Compound 6] | > 80% | < 80% |
| Cc1cc2nc(C(C)N3CCCC3)n(Cc3ccc(Cl)cc3)c2cc1C (stereo not drawn) [Compound 88] | < 55% | < 20% |
| COc1ccc(Cn2c(C)nc3c(N)c(C)c(C)cc32)cc1 [Compound 147] | < 80% | < 80% |
| O=C(O)c1cccc(Cn2c(CN3CCCC3)nc3ccccc32)c1 [Compound 17] | > 80% | > 80% |
| O[C@@H]1CCN(Cc2nc3ccccc3n2Cc2ccc(Cl)cc2)C1 [Compound 24] | > 80% | > 80% |
| COC(=O)c1ccc(Cn2cnc3ccncc32)cc1 [Compound 161] | > 80% | > 80% |
| O=C(O)c1ccc2c(c1)ncn2Cc1ccc(Cl)cc1 [Compound 44] | < 80% | > 80% |
| Clc1ccc(Cn2cnc3cc4c(cc32)OCCO4)cc1 [Compound 64] | < 80% | < 80% |
| CC(C)Cc1nc2ccccc2n1Cc1ccc(Cl)cc1 [Compound 118] | < 55% | < 55% |
| CC(=O)Nc1c(C)c(C)cc2c1ncn2Cc1ccc(Cl)cc1 [Compound 68] | > 80% | > 80% |
| Cc1nc2cc(Cl)ccc2n1Cc1ccccc1 [Compound 125] | < 80% |  |
| COCC1CCCN1Cc1nc2c(C)c(C)ccc2n1Cc1ccc(Cl)cc1 (stereo not drawn) [Compound 31] | < 80% | < 55% |
| OC[C@H]1CCCN1Cc1nc2ccccc2n1Cc1ccc(Cl)cc1 [Compound 95] | > 80% | < 80% |
| Cc1ccc2c(ncn2Cc2ccc(Cl)cc2)c1C [Compound 59] | < 55% | < 55% |
| COC(=O)c1ccc(Cn2c(/C=C/c3ccccc3)nc3cc(C)c(C)cc32)cc1 [Compound 160] | < 80% | < 20% |
| c1ccc2c(c1)nc(CN1CCCC1)n2CC1CCNCC1 [Compound 36] | < 80% | > 80% |
| O[C@H]1CCN(Cc2nc3ccccc3n2Cc2ccc(Cl)cc2)C1 [Compound 23] | > 80% | > 80% |

| Structure (SMILES) | activity at 5 µM | activity at 10 µM |
| --- | --- | --- |
| Cc1cc2nc(CN3CCCC3)n(Cc3ccc(Cl)cc3)c2cc1C [Compound 156] | < 80% | < 55% |
| Fc1cc2ncn(Cc3ccc(Cl)cc3)c2cc1Cl [Compound 55] | < 80% | < 80% |
| Cc1cc2nc(CN3CCCC3c3ccccn3)n(Cc3ccc(Cl)cc3)c2cc1C (stereo not drawn) [Compound 51] | < 20% | < 20% |
| CC(C)c1nc2ccccc2n1Cc1ccc(Cl)cc1Cl [Compound 121] | > 80% | < 20% |
| Cc1ccc(Cn2c(CN3CCCC3)nc3ccccc32)cc1 [Compound 40] | < 80% | < 80% |
| NC1=NC2CCCCC2N1C(=O)c1ccc(Cl)cc1 (stereo not drawn) [Compound 132] | > 80% | > 80% |
| Cc1nc2ccccc2n1Cc1ccc(Br)cc1 [Compound 135] | < 20% | < 20% |
| Oc1ccc(Cn2cnc3ccccc32)cc1 [Compound 143] | > 80% | < 80% |
| Cc1cc2nc(CN3CCCC3C)n(Cc3ccc(Cl)cc3)c2cc1C (stereo not drawn) [Compound 49] | < 55% | < 55% |
| CS(=O)(=O)c1ccc2c(c1)nc(C(F)(F)F)n2Cc1ccccc1 [Compound 150] | < 80% | < 55% |
| CC(C)(C)C(=O)NCc1nc2ccccc2[nH]1 [Compound 115] | < 80% | > 80% |
| CC(=O)N(C)Cc1nc2ccccc2n1Cc1ccc(Cl)cc1Cl [Compound 126] | < 80% | < 55% |
| Brc1ccc(Cn2cnc3ccccc32)cc1 [Compound 134] | < 55% | < 20% |
| COC(=O)C1CCCN1Cc1nc2ccccc2n1Cc1ccc(Cl)cc1 (stereo not drawn) [Compound 8] | < 55% | < 55% |
| OCc1nc2ccccc2n1Cc1ccc(Br)cc1 [Compound 136] |  | < 55% |
| FC(F)(F)c1nc2ccccc2n1Cc1ccc(Cl)cc1 [Compound 123] | > 80% | < 80% |
| FC(F)Oc1ccc(Cn2c(CN3CCCC3)nc3ccccc32)cc1 [Compound 42] | > 80% | < 80% |
| CCCN(CCC)Cc1nc2ccccc2n1Cc1ccc(Cl)cc1 [Compound 5] | < 80% | < 55% |
| Cc1cc2c(ncn2C)c(NS(C)(=O)=O)c1C [Compound 79] | < 80% | > 80% |
| CCC(=O)NCc1nc2ccccc2[nH]1 [Compound 113] | > 80% | > 80% |
| Cc1ccc(Cn2c(C)nc3cc(C)c(C)cc32)cc1 [Compound 155] | < 55% | < 20% |
| c1ccc2c(c1)nc(CN1CCCC1)n2Cc1ccncc1 [Compound 20] | > 80% | > 80% |
| Clc1ccc(Cn2c(Cc3ccccc3)nc3ccccc32)c(Cl)c1 [Compound 122] | < 55% | < 55% |
| Cc1cc2c(ncn2Cc2ccc(Cl)cc2)c(N)c1C [Compound 67] | < 80% | < 80% |
| Clc1ccc(Cn2cnc3cnccc32)cc1 [Compound 84] | < 80% | > 80% |

| Structure (SMILES) | activity at 5 µM | activity at 10 µM |
| --- | --- | --- |
| CCCS(=O)(=O)c1nc2ccccc2n1Cc1ccc(Cl)cc1 [Compound 99] | < 20% | < 20% |
| Cc1cc2c(ncn2Cc2ccc(Cl)cc2)c([N+](=O)[O-])c1C [Compound 66] | < 80% | < 55% |
| CCn1c(CNC=O)nc2ccccc21 [Compound 114] | > 80% | > 80% |
| Cc1cc2c(ncn2Cc2ccc(Cl)cc2)c(NC(=O)C(C)C)c1C [Compound 69] | > 80% | < 80% |
| c1ccc2c(c1)nc(CN1CCCC1)n2CC1CCCCC1 [Compound 22] | > 80% | < 80% |
| COc1c(Cl)cnc2c1ccn2Cc1ccc(Cl)cc1 [Compound 101] | > 80% | < 80% |
| Cc1cc2nc(CN3CCC[C@@H]3C)n(Cc3ccc(Cl)cc3)c2cc1C [Compound 97] | < 55% | < 20% |
| COC(=O)c1cccc(Cn2c(CN3CCCC3)nc3ccccc32)c1 [Compound 16] | > 80% | > 80% |
| Clc1ccc(Cn2ccc3cc(Cl)cnc32)cc1 [Compound 100] | > 80% | < 80% |
| Clc1ccc(Cn2cnc3cccnc32)cc1 [Compound 85] | > 80% | < 80% |
| COCC1CCCN1Cc1nc2ccccc2n1Cc1ccc(Cl)cc1 (stereo not drawn) [Compound 10] | < 80% | < 80% |
| COC(=O)c1ccc(Cn2c(CN3CCCC3)nc3ccccc32)cc1 [Compound 14] | < 80% | < 80% |
| COc1ccc2c(c1)ncn2Cc1ccc(Cl)cc1 [Compound 56] | < 80% | < 55% |
| Cc1cc2nc(-c3ccc(=O)[nH]c3)n(Cc3ccc(Cl)cc3)c2cc1C [Compound 159] | < 80% | < 55% |
| Cc1cccc(Cn2cnc3c(NS(=O)(=O)c4ccc(F)cc4)c(C)c(C)cc32)c1 [Compound 80] | < 55% | < 80% |
| Cc1cccc(Cn2c(C)nc3c(NS(C)(=O)=O)c(C)c(C)cc32)c1 [Compound 77] | > 80% | < 80% |
| CCCCc1nc2ccccc2n1Cc1ccc(Cl)cc1 [Compound 117] | < 20% | < 20% |
| Cc1cc2ncn(Cc3ccccc3)c2cc1C [Compound 128] | < 55% | < 55% |
| Cc1cc2nc(/C=C/c3ccccc3)n(Cc3ccc(Cl)cc3)c2cc1C [Compound 145] | < 80% | < 20% |
| Cc1cc2nc(CN3CCC[C@@H]3CO)n(Cc3ccc(Cl)cc3)c2cc1C [Compound 48] | > 80% | < 80% |
| Clc1ccc(Cn2c(CN3CCCC3)nc3ccccc32)s1 [Compound 32] | < 80% | < 80% |
| Cc1cc2nc([C@H](C)N3CCC[C@H]3CO)n(Cc3ccc(Cl)cc3)c2cc1C [Compound 89] | < 55% | < 55% |
| Cc1cc2c(ncn2Cc2ccc(Cl)cc2)c(NS(=O)(=O)c2cccc(Cl)c2)c1C [Compound 82] | > 80% | > 80% |

Source: US9101628B2, “Methods and composition of treating a flaviviridae family viral infection” (The Board of Trustees of the Leland Stanford Junior …, priority 2007, dated 2015)
